According to patent US5674878A, “Anellated dihydropyridines and the use thereof for the production of pharmaceutical preparations” (Boehringer Ingelheim KG, priority 1992, dated 1997):

What follows are compounds tested on unselective cation channels (UCC) (assay: Thapsigargin (0.1 μM) stimulated Ca^2+ entry through unselective cation channels in fura-2-charged RBL-hm 1 cells). Conditions: RBL-hm 1 cells, Thapsigargin (0.1 μM) stimulation, 10 μM test substance (Table 21).
Assay type: cell-based, rat
From the text: As a measurement of the cell activation or as a measurement of the inhibition thereof by UCC blockers, the kinetics of the cytoplasmic calcium ion concentration in fura-2-charged cells is quantified fluorometrically using the method described by GRYNKIEWICZ et al. (1985).
Consequently the Ca^2+ -stores are rapidly depleted. As described by J. PUTNEY (Calcium, 11, 611-624, 1990) the depletion of these stores constitutes the physiological stimulation for opening up unselective cation channels in the cell membrane. The result of this is a massive influx of Na^+ and Ca^2+ into the cell. Because of these properties, Thapsigargin is suitable as an indirect stimulator for agonist- and IP3-independent opening up of the unselective cation channels.
The functional endothelin antagonism of the substances according to the invention is mediated through a blockade of the unselective cation channels. Consequently, detection of a functional Thapsigargin-antagonism on RBL-hm1 cells is also a suitable screening method for functional endothelin antagonists.
For screening purposes, fura-2-charged adhesive RBL-hm 1 cells are stimulated with 0.1 μM Thapsigargin in a Ca^2+ -free incubation medium. After 4 minutes, extracellular Ca^2+ is restored to a concentration of 1.5 mM and, using the fura-2-fluorescence, the excessive increase in the cytoplasmic Ca^2+ -concentration caused by a massive transmembranal Ca^2+ -entry through unselective cation channels is recorded.
This entry is to be inhibited solely by unselective cation channel blockers in a dosage-dependent manner. Neither conventional calcium antagonists nor specific blockers of agonists which stimulate the IP3 -turnover are able to inhibit the transmembranal Ca^2+ -entry triggered indirectly by Thapsigargin. The compounds of the present invention are distinguished by their inhibition of UCC.
The fluorometric calcium measurement in the cytoplasm of individual adhering RBL-hm1 cells is carried out analogously to the method described by KUDO and OGURA (1986) for neuronal cells. An AXIOVERT 35 fluorescence microscope made by ZEISS is used in conjunction with an imaging system made by HAMAMATSU, consisting of the ICMS-image processing system, residual light camera with control unit and image intensifier DVS 3000.
The kinetics of the cytoplasmic Ca^2+ -concentration is recorded continuously as a concentration/time curve after the cell activation stimulated by Thapsigargin (0.1 μM). The curves of two activated cell cultures are compared in the presence and absence of 10 μM test substance. The area under these curves (area under the curve=AUC) is integrated and recorded as a measurement of cell activation. The inhibitory potency of the UCC-blockers tested is determined using the following equation: [formula] %H=the percentage inhibition of the calcium entry through unselective cation channels which is stimulated and inhibited by 10 μM of test substance.
AUCinh =area under the curve recorded in the presence of the stimulant plus 10 μM inhibitory test substance.
AUCcontrol =area under the curve which is recorded only after the addition of the stimulant.
The percentage inhibition of UCC after Thapsigargin stimulation (0.1 μM Thapsigargin) in RBL-hm 1 cells is given. The uniform concentration of the test substances is 10^-5 mol).

SMILES	% Inhibition [%]
CCOc1ccccc1CCNC(=O)C(=C1NCCc2cc(OC)c(OC)cc21)c1ccccc1 (single isomer, unassigned) [K]	76.31
COc1cc2c(cc1OC)C(=C(C(=O)NCCc1c(OC)cccc1OC)c1ccccc1)NCC2 (single isomer, unassigned) [L]	53.14
COc1cc2c(cc1OC)C(C(C(=O)N(CCc1ccc(OC)c(OC)c1OC)CCc1ccc(OC)c(OC)c1OC)c1ccccc1)=NCC2 (centres unmarked) [38a (oxalate)]	52.64
COc1cc2c(cc1OC)C(C(C(=O)N1CCCC1)c1ccccc1)=NCC2 (centres unmarked) [41 (Structure I)]	57.22
COc1cc2c(cc1OC)C(C(C(=O)NCCc1ccc(OC)c(OC)c1OC)c1ccccc1)=NCC2 (centres unmarked) [B]	72.35
COc1cc2c(cc1OC)C(C(C(=O)NCC(c1ccccc1)c1ccccc1)c1ccccc1)=NCC2 (centres unmarked) [C]	63.45
COc1cc2c(cc1OC)C(C(C(=O)NCCc1cccc(C(F)(F)F)c1)c1ccccc1)=NCC2 (centres unmarked) [E]	81.89
COc1cc2c(cc1OC)C(C(C(=O)NCc1c(F)cccc1OC)c1ccccc1)=NCC2 (centres unmarked) [F]	48.01
COc1cc2c(cc1OC)C(=C(C(=O)NCCc1cccc(OC)c1OC)c1ccccc1)NCC2 [G]	57.52
COc1cc2c(cc1OC)C(=C(C(=O)NC(C)COc1ccccc1)c1ccccc1)NCC2 (centres unmarked) [H]	57.06
COc1cc2c(cc1OC)C(C(C(=O)NCCc1ccsc1)c1ccccc1)=NCC2 (centres unmarked) [O]	63.32

Same assay, conditions: Table 13; 10 μM test substance

SMILES	% Inhib. [%]
NS(=O)(=O)c1ccc(CCNC(=O)C(=C2NCCc3ccsc32)c2ccccc2)cc1	50.64
COc1ccc(CCNC(=O)C(C2=NCCc3ccsc32)c2ccccc2)cc1 (centres unmarked)	67.73
COc1ccc(CCNC(=O)C(=C2NCCc3ccsc32)c2ccccc2)cc1	65.50
CCOc1ccccc1CCNC(=O)C(C1=NCCc2ccsc21)c1ccccc1 (centres unmarked)	24.03
O=C(NCCc1cccc(C(F)(F)F)c1)C(C1=NCCc2ccsc21)c1ccccc1 (centres unmarked)	43.49
O=C(NCCc1ccc(Cl)cc1)C(C1=NCCc2ccsc21)c1ccccc1 (centres unmarked)	15.26
O=C(NCCc1ccc(Cl)cc1)C(=C1NCCc2ccsc21)c1ccccc1	26.54
O=C(NCCc1ccsc1)C(C1=NCCc2ccsc21)c1ccccc1 (centres unmarked)	0.0
O=C(NCCc1ccsc1)C(=C1NCCc2ccsc21)c1ccccc1	67.75

Same assay, conditions: Table 14; 10 μM test substance

SMILES	% Inhib. [%]
COc1cc2c(cc1OC)C(C(C(=O)NCCc1ccc(S(N)(=O)=O)cc1)c1ccccc1)=NCC2 (centres unmarked)	79.17
COc1cc2c(cc1OC)C(C(C(=O)NCCCc1ccccc1)c1ccccc1)=NCC2 (centres unmarked)	73.55
COc1cc2c(cc1OC)C(C(C(=O)NCCC1CCCN1C)c1ccccc1)=NCC2 (centres unmarked)	60.82
COc1cc2c(cc1OC)C(C(C(=O)NC(C)CCc1ccccc1)c1ccccc1)=NCC2 (centres unmarked)	82.76
COc1ccc(CNC(=O)C(C2=NCCc3cc(OC)c(OC)cc32)c2ccccc2)cc1OC (centres unmarked)	50.90
COc1ccc(CNC(=O)C(C2=NCCc3cc(OC)c(OC)cc32)c2ccccc2)c(OC)c1 (centres unmarked)	56.20
COc1cc2c(cc1OC)C(C(C(=O)N(CCCc1ccccc1)CCCc1ccccc1)c1ccccc1)=NCC2 (centres unmarked)	22.39
COc1cc2c(cc1OC)C(C(C(=O)NCCc1ccc(C)cc1)c1ccccc1)=NCC2 (centres unmarked)	79.60
COc1cc2c(cc1OC)C(C(C(=O)NCCc1ccc(Cl)c(OCc3ccccc3)c1)c1ccccc1)=NCC2 (centres unmarked)	36.71
COc1cc2c(cc1OC)C(C(C(=O)NCC1CCCCC1)c1ccccc1)=NCC2 (centres unmarked)	30.87

Same assay, conditions: Table 15; 10 μM test substance

SMILES	% Inhib. [%]
COc1cc2c(cc1OC)C(C(C(=O)NCCCc1ccc(C(C)(C)C)cc1)C1CCCCC1)=NCC2 (centres unmarked)	84.43

Same assay, conditions: Table 16; %inhibition, 10 μM test substance

SMILES	% [%]
COc1ccc2c(c1)CCN=C2C(C(=O)NCCc1cccc(C(F)(F)F)c1)c1ccccc1 (centres unmarked)	30.41
O=C(NCCc1cccc(C(F)(F)F)c1)C(C1=NCCc2cc(OCc3ccccc3)ccc21)c1ccccc1 (centres unmarked)	14.65
Cc1cc2c(cc1OCc1ccccc1)CCN=C2C(C(=O)NCCc1cccc(C(F)(F)F)c1)c1ccccc1 (centres unmarked)	49.03
COc1cc2c(cc1OCc1ccccc1)CCN=C2C(C(=O)NCCc1cccc(C(F)(F)F)c1)c1ccccc1 (centres unmarked)	31.8
COc1cc2c(cc1OCc1ccccc1)C(C(C(=O)NCCc1cccc(C(F)(F)F)c1)c1ccccc1)=NCC2 (centres unmarked)	22.9
COc1cc2c(cc1C)C(C(C(=O)N(Cc1ccccc1)Cc1ccccc1)c1ccccc1)=NCC2 (centres unmarked)	58.3

Same assay, conditions: Table 17; 10 μM test substance

SMILES	percent inhibition of Ca2+ entry [%]
COc1cc(N=[N+]=[N-])c(I)cc1CCNC(=O)C(C1=NCCc2cc(OC)c(OC)cc21)c1ccccc1 (centres unmarked)	36.95
COc1ccccc1CCNC(=O)C(C1=NCCc2cc(OC)c(OC)cc21)c1ccccc1 (centres unmarked)	69.7
COc1ccc(CCN(CC(C)C)C(=O)C(C2=NCCc3cc(OC)c(OC)cc32)c2ccccc2)cc1OC (centres unmarked)	12.82
COc1cc2c(cc1OC)C(C(C(=O)NCCOc1cccc3ccccc13)c1ccccc1)=NCC2 (centres unmarked)	59
COc1cc2c(cc1OC)C(C(C(=O)NC(C)COc1c(C)cccc1C)c1ccccc1)=NCC2 (centres unmarked)	72.18
COc1cccc(OCCN2CCN(C(=O)C(C3=NCCc4cc(OC)c(OC)cc43)c3ccccc3)CC2)c1 (centres unmarked)	41.06
COc1cc2c(cc1OC)C(C(C(=O)N1CCN(c3nc(N)c4cc(OC)c(OC)cc4n3)CC1)c1ccccc1)=NCC2 (centres unmarked)	7.77
COc1cccc(OCCNC(=O)C(C2=NCCc3cc(OC)c(OC)cc32)c2ccccc2)c1 (centres unmarked)	45.26
COc1ccc2c(c1)CCN(C(=O)C(C1=NCCc3cc(OC)c(OC)cc31)c1ccccc1)C2 (centres unmarked)	33.06
COc1cc2c(cc1OC)C(C(C(=O)NC(C)(C)C)c1ccccc1)=NCC2 (centres unmarked)	81.60
COc1cc2c(cc1OC)C(C(C(=O)NCC(C)(C)C)c1ccccc1)=NCC2 (centres unmarked)	81.51
COc1cc2c(cc1OC)C(C(C(=O)NCC13CC4CC(CC(C4)C1)C3)c1ccccc1)=NCC2 (centres unmarked) [HNCH2-1-Adam.]	65.1

Same assay, conditions: Table 18; 10 μM test substance

SMILES	percent inhibition of Ca2+ entry [%]
COc1cc2c(cc1OC)C(C(C(=O)N(CCc1ccc(OC)c(OC)c1OC)CCc1ccc(OC)c(OC)c1OC)c1ccccc1OC)=NCC2 (centres unmarked)	41.8
COc1cccc(C(C(=O)N(CCc2ccc(OC)c(OC)c2OC)CCc2ccc(OC)c(OC)c2OC)C2=NCCc3cc(OC)c(OC)cc32)c1 (centres unmarked)	24.3
COc1ccc(C(C(=O)N(CCc2ccc(OC)c(OC)c2OC)CCc2ccc(OC)c(OC)c2OC)C2=NCCc3cc(OC)c(OC)cc32)cc1 (centres unmarked)	73.7
COc1ccc(C(C(=O)N(CCc2ccc(OC)c(OC)c2OC)CCc2ccc(OC)c(OC)c2OC)C2=NCCc3cc(OC)c(OC)cc32)cc1OC (centres unmarked)	53.1
COc1cc2c(cc1OC)C(C(C(=O)N(CCc1ccc(OC)c(OC)c1OC)CCc1ccc(OC)c(OC)c1OC)c1ccccc1C)=NCC2 (centres unmarked)	68.22
COc1cc2c(cc1OC)C(C(C(=O)N(CCc1ccc(OC)c(OC)c1OC)CCc1ccc(OC)c(OC)c1OC)c1ccc(Cl)cc1Cl)=NCC2 (centres unmarked)	30.79
COc1cc2c(cc1OC)C(C(C(=O)N(CCc1ccc(OC)c(OC)c1OC)CCc1ccc(OC)c(OC)c1OC)c1ccc(F)cc1)=NCC2 (centres unmarked)	54.30
COc1cc2c(cc1OC)C(C(C(=O)N(CCc1ccc(OC)c(OC)c1OC)CCc1ccc(OC)c(OC)c1OC)c1ccc(N=[N+]=[N-])cc1)=NCC2 (centres unmarked)	61.3
COc1cc2c(cc1OC)C(C(C(=O)N(CCc1ccc(OC)c(OC)c1OC)CCc1ccc(OC)c(OC)c1OC)c1ccc(N=[N+]=[N-])c(I)c1)=NCC2 (centres unmarked)	5.81
COc1cc2c(cc1OC)C(C(CC1CCC1)C(=O)N(CCc1ccc(OC)c(OC)c1OC)CCc1ccc(OC)c(OC)c1OC)=NCC2 (centres unmarked)	56.0

Same assay, conditions: Table 19; 10 μM test substance

SMILES	percent inhibition of Ca2+ entry [%]
COc1ccccc1CCNC(=O)C(C1=NCCc2cc(OC)c(OC)cc21)c1ccc(N=[N+]=[N-])cc1 (centres unmarked)	50.58

Same assay, conditions: Table 20; 10 μM test substance

SMILES	percent inhibition of Ca2+ entry [%]
Cc1cc2c(cc1OCc1ccccc1)CCN=C2C(C(=O)NCCc1cccc(C(F)(F)F)c1)c1ccccc1 (centres unmarked)	49.03
COc1cc2c(cc1OCc1ccccc1)CCN=C2C(C(=O)NCCC(C)(C)C)c1ccccc1 (centres unmarked) [NHCH2 CH2C(CH3)3]	61.85
